Measured values published in patent US20220251134A1, “2,4,7-SUBSTITUTED-7-DEAZA-2'-DEOXY-2'-FLUOROARABINOSYL NUCLEOSIDE AND NUCLEOTIDE PRO-DRUGS AND USES THEREOF” (Southern Research Institute, priority 2019, published 2022).
Read-outs that look alike come from different tables or passages of the source.

How the values were obtained:
[1] = tested on: HBV in HepG2 2.2.15 cells; experiment: HepG2 2.2.15 cell-based HBV replication assay (HBV virus yield, extracellular HBV DNA by real-time PCR); parameters: species or system HBV wild-type strain ayw1; conditions: for EC50 / EC90: Hepatitis B virus
Description: (§1) The HepG2 2.2.15 cell line is a stable human hepatoblastoma cell line that contains two copies of the HBV wild-type strain ayw1 genome and constitutively produces high levels of HBV. Cells were sub-cultured twice a week in Dulbecco's Modified Eagle's Medium (DMEM) supplemented with 10% FBS, 380 μg/mL G418, 2.0 mM L-Glutamine, 100 units/mL Penicillin, and 100 μg/mL Streptomycin. Total cell number and percent viability determinations were performed using a hemacytometer and trypan blue dye exclusion prior to each experiment set-up.
The primary anti-HBV assay was performed as previously described (Korba and Milman (1991) Antiviral Res. 15: 217-228; Korba and Gerin (1992) Antiviral Res. 19: 55-70) with modifications to use real-time PCR (TaqMan-based) to measure extracellular HBV DNA virion-associated released from HepG2 2.2.15 cells. Antiviral compounds blocking any late step of viral replication such as transcription, translation, pre-genome encapsidation, reverse transcription, particle assembly and release can be identified and characterized using this cell line. Briefly, HepG2 2.2.15 cells were seeded in 96-well microtiter plates at 1.5×10^4 cells/well in Dulbecco's Modified Eagle's Medium supplemented with 2% FBS, 2.0 mM L-Glutamine, 100 units/mL Penicillin, and 100 μg/mL Streptomycin. […] Three days post treatment with test article (DPV), cell culture medium was replaced with fresh medium containing the appropriately diluted test compounds. Six days following the initial administration of the test compounds, the cell culture supernatant was collected, treated with pronase and then used in a real-time TaqMan-based PCR assay. The PCR-amplified HBV DNA was detected by measuring fluorescent signal resulting from the exonucleolytic degradation of a quenched fluorescent probe molecule that hybridizes to the amplified HBV DNA.

[2] = Evaluation of cell viability (MTS) in HepG2 2.2.15 cells; format: cell-based, human; conditions: human
Description: as §1, with “set-up. Cell viability was always greater than 95% for experiment set-ups.” for “set-up.”
(§2) At experiment conclusion, MTS reagent (CellTiter®96 Reagent, Promega) reagent was added to culture wells (96 well microtiter plates) and permitted to incubate with cells for 2-4 hours at 37° C., 5% CO2. Each cell culture well was measured for MTS reagent reduction (color change, 490/650 nm) using a SpectraMax i3 plate reader (Molecular Devices).

HSV-1 Strain HF = experiment: Antiviral activity against HSV-1 Strain HF in Vero cells; format: cell-based
[3] = Cytotoxicity (TC50) in Vero cells; format: cell-based; conditions: African green monkey, Table 2
HepG2 2.2.15 cells = experiment: Evaluation of cell viability (MTS) in HepG2 2.2.15 cells; format: cell-based, human; conditions: Table 3; HBV virus yield assay
Description: as §1, with “set-up. Cell viability was always greater than 95% for experiment set-ups.” for “set-up.”
as §2

[4] = HepG2 2.2.15, Table 1, HBV in HepG2 2.2.15 cells, read-out: EC50
[5] = HepG2 2.2.15, Table 3, HBV virus yield assay, read-out: EC50
[6] = Table 1, HBV in HepG2 2.2.15 cells, read-out: EC90
[7] = Table 1, HBV in HepG2 2.2.15 cells
[8] = HepG2 2.2.15, Table 3, HBV virus yield assay, read-out: EC90
[9] = HepG2 2.2.15 cells, Table 3, HBV virus yield assay

| SMILES | EC50 ([1]; HepG2 2.2.15) | EC90 ([1]; HepG2 2.2.15) | CC50 ([2]; Table 3, HBV virus yield assay) | EC50 [1, 5] | EC90 [1, 8] | CC50 [2, 9] | further results |
| --- | --- | --- | --- | --- | --- | --- | --- |
| CC(C)OC(=O)[C@H](C)NP(=O)(OC[C@H]1O[C@@H](n2ccc3c(N)nc(Cl)nc32)[C@@H](F)[C@@H]1O)Oc1ccccc1 (mixture of isomers) [Compound 9b, isopropyl ((((2R,3R,4S,5R)-5-(4-amino-2-chloro-7H-pyrrolo[2,3-d]pyrimidin-7-yl)-4-fluoro-3-hydroxytetrahydrofuran-2-yl)methoxy)(phenoxy)phosphoryl)-L-alaninate] | 90 nM | 1050 nM | > 10000 nM | – | – | – | – |
| CCOC(=O)[C@H](C)NP(=O)(OC[C@H]1O[C@@H](n2ccc3c(N)nc(Cl)nc32)[C@@H](F)[C@@H]1O)Oc1ccccc1 (mixture of isomers) [Compound 9e, ethyl ((((2R,3R,4S,5R)-5-(4-amino-2-chloro-7H-pyrrolo[2,3-d]pyrimidin-7-yl)-4-fluoro-3-hydroxytetrahydro-furan-2-yl)methoxy)-(phenoxy)phosphoryl)-L-alaninate] | 140 nM | > 10000 nM | > 10000 nM | – | – | – | – |
| C[C@H](NP(=O)(OC[C@H]1O[C@@H](n2ccc3c(N)nc(Cl)nc32)C(F)C1O)Oc1ccccc1)C(=O)OCc1ccccc1 (single isomer, unassigned) [Compound 9c] | 240 nM | > 10000 nM | > 10000 nM | – | – | – | – |
| CC(C)COC(=O)[C@H](C)NP(=O)(OC[C@H]1O[C@@H](n2ccc3c(N)nc(Cl)nc32)[C@@H](F)[C@@H]1O)Oc1ccccc1 (single isomer, unassigned) [Compound 9d] | 300 nM | > 10000 nM | > 10000 nM | – | – | – | – |
| COC(=O)[C@H](C)NP(=O)(OC[C@H]1O[C@@H](n2ccc3c(N)nc(Cl)nc32)[C@@H](F)[C@@H]1O)Oc1ccccc1 (single isomer, unassigned) [Compound 9f] | 240 nM | > 10000 nM | > 10000 nM | – | – | – | – |
| Nc1nc2c(ncn2COCCO)c(=O)[nH]1 [Acyclovir, acyclovir, reference compound] | – | – | – | – | – | – | IC50 (HSV-1 Strain HF; Table 2): 11400 nM; Selectivity Index (SI50) (TC50/IC50) (HSV-1 Strain HF; Table 2): >8.77; CC50 [3]: > 100000 nM |
| Nc1ccn([C@@H]2CS[C@H](CO)O2)c(=O)n1 [Compound 3TC, Lamivudine, reference compound] | – | – | – | 29 nM | – | – | EC50 [1, 4]: 29 nM; EC90 [1, 6]: 511 nM; CC50 ([2]; Table 1, HepG2 2.2.15 cells): > 2000 nM; CC50 (HepG2 2.2.15 cells): > 2000 nM |
| Nc1nc(Cl)nc2c1ccn2[C@@H]1O[C@H](CO)[C@@H](O)[C@@H]1F [Compound 5, (2R,3R,4S,5R)-5-(4-amino-2-chloro-7H-pyrrolo[2,3-d]pyrimidin-7-yl)-4-fluoro-2-(hydroxymethyl)tetrahydrofuran-3-ol] | – | – | – | 60 nM | – | – | EC50 [1, 4]: 70 nM; EC90 [1, 6]: 1280 nM; Activity [1, 7]: Hi; Selectivity Index (SI50) (CC50/EC50) [1, 7]: >167; CC50 ([2]; Table 1, HepG2 2.2.15 cells): > 10000 nM; CC50 (HepG2 2.2.15 cells): > 10000 nM; IC50 (HSV-1 Strain HF; Human alphaherpesvirus 1, Table 2): 650 nM; Selectivity Index (SI50) (TC50/IC50) (HSV-1 Strain HF; Table 2): >15.4; CC50 [3]: > 10000 nM |
| CCC(CC)COC(=O)[C@H](C)NP(=O)(OC[C@H]1O[C@@H](n2ccc3c(N)nc(Cl)nc32)[C@@H](F)[C@@H]1O)Oc1ccccc1 (stereo partly drawn) [Compound 9a, 2-ethylbutyl ((((2R,3R,4S,5R)-5-(4-amino-2-chloro-7H-pyrrolo[2,3-d]pyrimidin-7-yl)-4-fluoro-3-hydroxytetrahydrofuran-2-yl)methoxy)(phenoxy)phosphoryl)-L-alaninate] | 160 nM | 1580 nM | > 10000 nM | – | – | – | – |
| CCCCCCCCCCCC(=O)Nc1nc(Cl)nc2c1ccn2[C@@H]1O[C@H](CO)[C@@H](O)[C@@H]1F [Compound 12a, N-(2-chloro-7-((2R,3S,4R,5R)-3-fluoro-4-hydroxy-5-(hydroxymethyl)tetrahydrofuran-2-yl)-7H-pyrrolo[2,3-d]pyrimidin-4-yl)dodecanamide] | – | – | – | 80 nM | 950 nM | > 10000 nM | – |
| CCCCCCCC/C=C\CCCCCCCC(=O)Nc1nc(Cl)nc2c1ccn2[C@@H]1O[C@H](CO)[C@@H](O)[C@@H]1F [Compound 12b, N-(2-chloro-7-((2R,3S,4R,5R)-3-fluoro-4-hydroxy-5-(hydroxymethyl)tetrahydrofuran-2-yl)-7H-pyrrolo[2,3-d]-pyrimidin-4-yl)oleamide] | – | – | – | 130 nM | > 10000 nM | > 10000 nM | – |
| CCCCCCCCCCCCCCCCCC(=O)Nc1nc(Cl)nc2c1ccn2[C@@H]1O[C@H](CO)[C@@H](O)[C@@H]1F [Compound 12c, N-(2-chloro-7-((2R,3S,4R,5R)-3-fluoro-4-hydroxy-5-(hydroxymethyl)tetrahydrofuran-2-yl)-7H-pyrrolo[2,3-d]pyrimidin-4-yl)stearamide] | – | – | – | 530 nM | > 10000 nM | > 10000 nM | – |
| CCCC(CCC)C(=O)Nc1nc(Cl)nc2c1ccn2[C@@H]1O[C@H](CO)[C@@H](O)[C@@H]1F [Compound 12d, N-(2-chloro-7-((2R,3S,4R,5R)-3-fluoro-4-hydroxy-5-(hydroxymethyl)tetrahydrofuran-2-yl)-7H-pyrrolo[2,3-d]pyrimidin-4-yl)-2-propylpentanamide] | – | – | – | 2120 nM | > 10000 nM | > 10000 nM | – |
